Like-named read-outs stand apart in the source and are kept apart here.
Assays:
Type in all cases: cell-based
[1] = tested on: HL-60(TB); test: NCI 60 antitumor screening (single dose / five doses); details: Homo sapiens
[2] = tested on: NCI-H23; test: NCI 60 antitumor screening (single dose); details: Homo sapiens; NCI-H23 (non-small cell lung cancer), single dose 10 μM; read-out: Growth inhibition percentage (GI %)
In short: (§1)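 Read-out is percent growth (G%) of treated cancer cells relative to untreated, converted to percent inhibition as 100 − G%. Each compound was applied once at 10 μM across 60 human tumour lines under the NCI protocol.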

[3] = tested on: SK-OV-3; test: NCI 60 antitumor screening (single dose); details: Homo sapiens
In short: as §1

[4] = tested on: OVCAR-4; test: NCI 60 antitumor screening (single dose); details: Homo sapiens
In short: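 NCI-60 one-dose screen. Dose: 10 μM. Lines: 60 human tumour lines, nine tissue types. Output: GI% = 100 − G%.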

[5] = tested on: COLO 205; test: NCI 60 antitumor screening (single dose / five doses); details: Homo sapiens
[6] = tested on: MDA-MB-231/ATCC; test: as above; details: Homo sapiens
[7] = tested on: 60 human subpanel cancer cell lines; test: NCI 60 antitumor screening, mean over the panel (single dose); details: mean over 60 cancer cell lines, single dose 10 μM
In short: as §1

[8] = tested on: SNB-75; test: NCI 60 antitumor screening (single dose / five doses); details: Homo sapiens
[9] = tested on: A498; test: as above; details: Homo sapiens
[10] = tested on: MDA-MB-468; test: as above; details: Homo sapiens
[11] = tested on: SK-MEL-2; test: as above; details: Homo sapiens
[12] = tested on: LOX IMVI; test: as above; details: Homo sapiens, read-out: Growth inhibition percentage (GI %)
[13] = tested on: BT-549; test: as above; details: Homo sapiens
[14] = tested on: SF-295; test: as above; details: Homo sapiens
[15] = tested on: NCI/ADR-RES; test: as above; details: Homo sapiens, read-out: Growth inhibition percentage (GI %)
[16] = tested on: SR; test: as above; details: Homo sapiens, read-out: Growth inhibition percentage (GI %)
[17] = tested on: SN 12C; test: as above; details: Homo sapiens, SN12C, read-out: Growth inhibition percentage (GI %)
[18] = tested on: SK-MEL-5; test: as above; details: Homo sapiens
[19] = tested on: MOLT-4; test: as above; details: Homo sapiens
[20] = tested on: DU-145; test: as above; details: Homo sapiens
[21] = tested on: RXF 393; test: as above; details: Homo sapiens
[22] = tested on: HCT-116; test: as above; details: Homo sapiens
[23] = tested on: SK-MEL-28; test: as above; details: Homo sapiens
[24] = tested on: EKVX; test: as above; details: Homo sapiens, read-out: Growth inhibition percentage (GI %)
[25] = tested on: IGROV1; test: as above; details: Homo sapiens
[26] = tested on: MDA-MB-435; test: as above; details: Homo sapiens
[27] = tested on: HCT-15; test: as above; details: Homo sapiens
[28] = tested on: UACC-62; test: as above; details: Homo sapiens
[29] = HL-60, read-out: Growth inhibition percentage (GI %)
[30] = SK-OV-3, read-out: Growth inhibition percentage (GI %)
[31] = OVCAR-4, read-out: Growth inhibition percentage (GI %)
[32] = COLO 205, read-out: Growth inhibition percentage (GI %)
[33] = MDA-MB-231, read-out: Growth inhibition percentage (GI %)
[34] = SNB-75, read-out: Growth inhibition percentage (GI %)
[35] = A498, read-out: Growth inhibition percentage (GI %)
[36] = MDA-MB-468, read-out: Growth inhibition percentage (GI %)
[37] = SK-MEL-2, read-out: Growth inhibition percentage (GI %)
[38] = BT-549, read-out: Growth inhibition percentage (GI %)
[39] = SF-295, read-out: Growth inhibition percentage (GI %)
[40] = SK-MEL-5, read-out: Growth inhibition percentage (GI %)
[41] = MOLT-4, read-out: Growth inhibition percentage (GI %)
[42] = DU-145, read-out: Growth inhibition percentage (GI %)
[43] = RXF 393, read-out: Growth inhibition percentage (GI %)
[44] = HCT-116, read-out: Growth inhibition percentage (GI %)
[45] = SK-MEL-28, read-out: Growth inhibition percentage (GI %)
[46] = IGROV-1, read-out: Growth inhibition percentage (GI %)
[47] = MDA-MB-435, read-out: Growth inhibition percentage (GI %)
[48] = HCT-15, read-out: Growth inhibition percentage (GI %)
[49] = UACC-62, read-out: Growth inhibition percentage (GI %)
[50] = HL-60(TB) (leukaemia), single dose 10 μM, read-out: Growth inhibition percentage (GI %)
[51] = SK-OV-3 (ovarian cancer), single dose 10 μM, read-out: Growth inhibition percentage (GI %)
[52] = OVCAR-4 (ovarian cancer), single dose 10 μM, read-out: Growth inhibition percentage (GI %)
[53] = COLO 205 (colon cancer), single dose 10 μM, read-out: Growth inhibition percentage (GI %)
[54] = MDA-MB-231/ATCC (breast cancer), single dose 10 μM, read-out: Growth inhibition percentage (GI %)
[55] = SNB-75 (CNS cancer), single dose 10 μM, read-out: Growth inhibition percentage (GI %)
[56] = A498 (renal cancer), single dose 10 μM, read-out: Growth inhibition percentage (GI %)
[57] = MDA-MB-468 (breast cancer), single dose 10 μM, read-out: Growth inhibition percentage (GI %)
[58] = SK-MEL-2 (melanoma), single dose 10 μM, read-out: Growth inhibition percentage (GI %)
[59] = LOX IMVI (melanoma), single dose 10 μM
[60] = BT-549 (breast cancer), single dose 10 μM, read-out: Growth inhibition percentage (GI %)
[61] = SF-295 (CNS cancer), single dose 10 μM, read-out: Growth inhibition percentage (GI %)
[62] = NCI/ADR-RES (ovarian cancer), single dose 10 μM
[63] = SR (leukaemia), single dose 10 μM
[64] = SN 12C (renal cancer), single dose 10 μM
[65] = SK-MEL-5 (melanoma), single dose 10 μM, read-out: Growth inhibition percentage (GI %)
[66] = MOLT-4 (leukaemia), single dose 10 μM, read-out: Growth inhibition percentage (GI %)
[67] = DU-145 (prostate cancer), single dose 10 μM, read-out: Growth inhibition percentage (GI %)
[68] = RXF 393 (renal cancer), single dose 10 μM, read-out: Growth inhibition percentage (GI %)
[69] = HCT-116 (colon cancer), single dose 10 μM, read-out: Growth inhibition percentage (GI %)
[70] = SK-MEL-28 (melanoma), single dose 10 μM, read-out: Growth inhibition percentage (GI %)
[71] = EKVX (non-small cell lung cancer), single dose 10 μM
[72] = IGROV-1, IGROV1 (ovarian cancer), single dose 10 μM, read-out: Growth inhibition percentage (GI %)
[73] = MDA-MB-435 (melanoma), single dose 10 μM, read-out: Growth inhibition percentage (GI %)
[74] = HCT-15 (colon cancer), single dose 10 μM, read-out: Growth inhibition percentage (GI %)
[75] = UACC-62 (melanoma), single dose 10 μM, read-out: Growth inhibition percentage (GI %)

O=[N+]([O-])c1cccc(/C=N/Nc2nc(N/N=C/c3cccc([N+](=O)[O-])c3)nc(N3CCOCC3)n2)c1 [compound 6f, 2-(Morpholin-4-yl)-4,6-bis[(E)-2-[(3-nitrophenyl)methylidene]hydrazin-1-yl]-1,3,5-triazine]
inhibition at 10 µM [1, 29]: 47.8%
inhibition at 10 µM [2]: 27.6%
inhibition at 10 µM [3, 30]: -29%
inhibition at 10 µM [4, 31]: 18.4%
inhibition at 10 µM [5, 32]: 44.2%
inhibition at 10 µM [6, 33]: 2.27%
Mean GI % [7]: 23.39%
inhibition at 10 µM [8, 34]: 11.2%
inhibition at 10 µM [9, 35]: 13.1%
inhibition at 10 µM [10, 36]: 1.3%
inhibition at 10 µM [11, 37]: 4.93%
inhibition at 10 µM ([12]; LOX IMVI): 39.5%
inhibition at 10 µM [13, 38]: 11.7%
inhibition at 10 µM [14, 39]: 13.7%
inhibition at 10 µM ([15]; NCI/ADR-RES): 30.9%
inhibition at 10 µM ([16]; SR): 66%
inhibition at 10 µM [17]: 24.4%
inhibition at 10 µM [18, 40]: 36.9%
inhibition at 10 µM [19, 41]: 52.7%
inhibition at 10 µM [20, 42]: 31.1%
inhibition at 10 µM [21, 43]: 28.1%
inhibition at 10 µM [22, 44]: 35.6%
inhibition at 10 µM [23, 45]: 17.9%
inhibition at 10 µM ([24]; EKVX): 11%
inhibition at 10 µM [25, 46]: 42.6%
inhibition at 10 µM [26, 47]: 9.84%
inhibition at 10 µM [27, 48]: 53.2%
inhibition at 10 µM [28, 49]: 21.1%

Clc1cccc(/C=N/Nc2nc(N/N=C/c3cccc(Cl)c3Cl)nc(N3CCOCC3)n2)c1Cl [compound 6h, 2,4-Bis[(E)-2-[(2,3-Dichlorophenyl)methylidene]hydrazin-1-yl]-6-(morpholin-4-yl)-1,3,5-triazine]
inhibition at 10 µM [1, 50]: -3.95%
inhibition at 10 µM [2]: 25.5%
inhibition at 10 µM [3, 51]: -15.1%
inhibition at 10 µM [4, 52]: 3.18%
inhibition at 10 µM [5, 53]: 7.98%
inhibition at 10 µM [6, 54]: 13.8%
Mean GI % [7]: 9.97%
inhibition at 10 µM [8, 55]: -19.6%
inhibition at 10 µM [9, 56]: -10.5%
inhibition at 10 µM [10, 57]: 32.8%
inhibition at 10 µM [11, 58]: 13.8%
inhibition at 10 µM [12, 59]: 31.6%
inhibition at 10 µM [13, 60]: 0.16%
inhibition at 10 µM [14, 61]: 18%
inhibition at 10 µM [15, 62]: 34.2%
inhibition at 10 µM [16, 63]: 51.9%
inhibition at 10 µM [17, 64]: 20.2%
inhibition at 10 µM [18, 65]: 15.5%
inhibition at 10 µM [19, 66]: 16.1%
inhibition at 10 µM [20, 67]: -2.63%
inhibition at 10 µM [21, 68]: 5.06%
inhibition at 10 µM [22, 69]: 19.3%
inhibition at 10 µM [23, 70]: 2.23%
inhibition at 10 µM [24, 71]: 24.4%
inhibition at 10 µM [25, 72]: 11.2%
inhibition at 10 µM [26, 73]: -6.86%
inhibition at 10 µM [27, 74]: 15.2%
inhibition at 10 µM [28, 75]: 11.3%

O=[N+]([O-])c1cc(/C=N/Nc2nc(N/N=C/c3ccc(Cl)c([N+](=O)[O-])c3)nc(N3CCOCC3)n2)ccc1Cl [compound 6i, 2,4-Bis[(E)-2-[(4-Chloro-3-nitrophenyl)methylidene]hydrazin-1-yl]-6-(morpholin-4-yl)-1,3,5-triazine]
inhibition at 10 µM [1, 29]: 13.7%
inhibition at 10 µM [2]: 3.66%
inhibition at 10 µM [3, 30]: -22.5%
inhibition at 10 µM [4, 31]: -12.5%
inhibition at 10 µM [5, 32]: -4.66%
inhibition at 10 µM [6, 33]: 3.16%
Mean GI % [7]: 0.67%
inhibition at 10 µM [8, 34]: -7.64%
inhibition at 10 µM [9, 35]: -10.3%
inhibition at 10 µM [10, 36]: 27.1%
inhibition at 10 µM [11, 37]: -2.6%
inhibition at 10 µM ([12]; LOX IMVI): 9.76%
inhibition at 10 µM [13, 38]: -0.85%
inhibition at 10 µM [14, 39]: -7.07%
inhibition at 10 µM ([15]; NCI/ADR-RES): -0.3%
inhibition at 10 µM ([16]; SR): 18.5%
inhibition at 10 µM [17]: 9.02%
inhibition at 10 µM [18, 40]: 3.31%
inhibition at 10 µM [19, 41]: 13.3%
inhibition at 10 µM [20, 42]: -11.3%
inhibition at 10 µM [21, 43]: -20.7%
inhibition at 10 µM [22, 44]: 7.64%
inhibition at 10 µM [23, 45]: -4.35%
inhibition at 10 µM ([24]; EKVX): 0.07%
inhibition at 10 µM [25, 46]: 7.34%
inhibition at 10 µM [26, 47]: -7.52%
inhibition at 10 µM [27, 48]: 8.38%
inhibition at 10 µM [28, 49]: 9.59%

Oc1ccc(/C=N/Nc2nc(N/N=C/c3ccc(O)c(O)c3)nc(N3CCOCC3)n2)cc1O [compound 6j, 4-[(1e)-(2-{4-[(E)-2-[(3,4-Dihydroxyphenyl)methylidene]hydrazin-1-yl]-6-(morpholin-4-yl)-1,3,5-triazin-2-yl}hydrazin-1-ylidene)methyl]benzene-1,2-diol]
inhibition at 10 µM [1, 50]: 0.38%
inhibition at 10 µM [2]: 0.57%
inhibition at 10 µM [3, 51]: -7.04%
inhibition at 10 µM [4, 52]: -1.23%
inhibition at 10 µM [5, 53]: -7.11%
inhibition at 10 µM [6, 54]: 1.27%
Mean GI % [7]: -2.12%
inhibition at 10 µM [8, 55]: -1.54%
inhibition at 10 µM [9, 56]: 2.87%
inhibition at 10 µM [10, 57]: 6.49%
inhibition at 10 µM [11, 58]: 3.04%
inhibition at 10 µM [12, 59]: -5.85%
inhibition at 10 µM [13, 60]: -9.12%
inhibition at 10 µM [14, 61]: -3.97%
inhibition at 10 µM [15, 62]: -5.32%
inhibition at 10 µM [16, 63]: 8.3%
inhibition at 10 µM [17, 64]: 0.16%
inhibition at 10 µM [18, 65]: 2.65%
inhibition at 10 µM [19, 66]: -1.68%
inhibition at 10 µM [20, 67]: -5.37%
inhibition at 10 µM [21, 68]: -20.4%
inhibition at 10 µM [22, 69]: -6.01%
inhibition at 10 µM [23, 70]: -2.58%
inhibition at 10 µM [24, 71]: 5.31%
inhibition at 10 µM [25, 72]: -6.08%
inhibition at 10 µM [26, 73]: -3.12%
inhibition at 10 µM [27, 74]: -2.93%
inhibition at 10 µM [28, 75]: 2.19%

From paper PMC9848300, “Discovery of novel enasidenib analogues targeting inhibition of mutant isocitrate dehydrogenase 2 as antileukaemic agents” (Journal of Enzyme Inhibition and Medicinal Chemistry, 2023)
